Laboratory results: patent US11419829B2, “Use of cannabidiol in combination with 5-HT2B receptor agonists or amphetamines in the treatment of epilepsy” (GW Research Limited, priority 2017, dated 2022)
Counter-ions that a name gives are not always drawn.

Key:
[1] = system: seizure frequency in patients with Dravet syndrome; settings: low dose between 0.25 and 1.0 mg/kg/day; cited from earlier work
[2] = system: MES-induced tonic seizures; experiment: Maximal electroshock seizure (MES) test in mice with isobolographic/CalcuSyn DDI analysis; assay type: in vivo, mouse; settings: for Dose Reduction Index (DRI): in CBD/FEN combination vs drug alone; for doses with statistically significant (p<0.05) anticonvulsant effect vs vehicle: Experiment A, single drug; for doses with statistically significant (p<0.05) anticonvulsant effect vs vehicle / effect on incidence of MES vs vehicle, drug alone: i.p.; for doses with statistically significant (p<0.05) anticonvulsant effect vs vehicle / ED50: mouse MES; for effect on incidence of MES vs vehicle, drug alone: Experiment B, low doses alone; for ED50: median-effect curves, drug alone, read-out: potency (Dm or ED50)
Method: The study was performed in two phases. […] Secondly, (Experiment B), drug-drug interactions (DDI) and anticonvulsant activities for CBD/FEN in combination were determined.
Experiment A was performed using 160 male, C57Bl6 mice, weighing between 20.1-30.1 g, and Experiment B was performed using 126 male, C57Bl6 mice, weighing between 19.2-26.1 g, purchased from a licensed breeder (Charles River, UK).
The following drugs were used in this study: Purified botanical CBD provided by GW Research Ltd., fenfluramine hydrochloride (FEN) purchased from Sigma Merck. The control vehicle used was 1:1:18 (5% ethanol, 5% Kolliphor EL, 90% saline). CBD and FEN were dissolved in the same control vehicle for comparison.
Animals were dosed (10 ml/kg) i.p. at 60 min for CBD and 30 min for FENS pre-treatment times, prior to MES and before plasma and brain sampling immediately post-MES test.
Here, doses were selected based on known ED50 and NOAELs for all the drugs and were: CBD-BOT [10, 30, 50, 70 and 100 mg/kg] and FEN [1, 2, 3, 5 and 10 mg/kg]. The number of animals in each of these groups were 10 (n=10), and 160 in total.
For Experiment B, in addition to the vehicle group, three dose groups were used for each of the treatments. Here, doses were selected based on analysis of the data obtained from Experiment A according to methods described for determination of isobolographic interactions. Doses as CBD/FEN combination were [20.9/2.5, 13.6/3.9 and 28.3/1.2 mg/kg]. The number of animals in each of these groups were 10 (n=10), and with individual CBD, FEN and VPA doses n=190 in total.
Electroconvulsions were produced by application of a fixed current intensity of 30 mA (0.2 sec duration) delivered via corneal electrodes. […] Mice were individually assessed for production of seizure determined by presence or absence of tonic hindlimb extension following current application.
Data were collected by an observer unaware of the treatment received by each animal.
The protective activities of CBD and FEN administered alone were evaluated and expressed as effective doses (ED50; mg/kg based on dose administered) and effective exposures (EE50; μM based on bioanalysis of brain samples) where EX50 is defined as the dose or brain exposure required to protect 50% of mice from MES-induced tonic seizures. CBD/FEN combinations were evaluated at 3 fixed ratios (1:3, 1:1 and 3:1) based on an EE50 derived from an assumption of linearly additive effects of EEs of the two drugs in combination.
For the three fixed-ratio CBD/FEN combinations (1:3, 1:1 and 3:1), calculations were based on Loewe's equation of additivity as follows; x/EE50(CBD)+y/EE50(FEN)=1; where x=the exposure of CBD and y=the exposure at which […], when co-administered with FEN, should theoretically exert the desired/additive 50% effect. Subsequently, CBD and FEN doses corresponding to 50% of respective EE50 were used for the CBD/FEN 1:1 ratio. Similarly, dose proportions were calculated for the CBD/FEN 1:3 and 3:1 ratios based on theoretical additive EE50.
The percentage protection of animals against MES-induced seizure were plotted against doses of AED alone (CBD or FEN) from Experiment A as log-probit linear regression analysis to derive ED50 and EE50.
Loewe's equation of additivity was used to determine fractions of EE50 in the three ratios 1:3, 1:1 and 3:1 for each of the combinations CBD/FEN. Graphs were plotted in Prism, for CBD and FEN to determine relationships versus these exposures to determine actual doses for the combination study (Experiment B).
DDI using these three-fixed dose-ratios of CBD/FEN was assessed using CalcuSyn v2.11 (Biosoft).

[3] = biological target: T1, human recombinant 5-HT2C receptor (Homo sapiens, UniProt P28335); experiment: Inhibition of specific binding at human recombinant 5-HT2C receptors (FIG. 2B)
T1 sequence (P28335 33-458): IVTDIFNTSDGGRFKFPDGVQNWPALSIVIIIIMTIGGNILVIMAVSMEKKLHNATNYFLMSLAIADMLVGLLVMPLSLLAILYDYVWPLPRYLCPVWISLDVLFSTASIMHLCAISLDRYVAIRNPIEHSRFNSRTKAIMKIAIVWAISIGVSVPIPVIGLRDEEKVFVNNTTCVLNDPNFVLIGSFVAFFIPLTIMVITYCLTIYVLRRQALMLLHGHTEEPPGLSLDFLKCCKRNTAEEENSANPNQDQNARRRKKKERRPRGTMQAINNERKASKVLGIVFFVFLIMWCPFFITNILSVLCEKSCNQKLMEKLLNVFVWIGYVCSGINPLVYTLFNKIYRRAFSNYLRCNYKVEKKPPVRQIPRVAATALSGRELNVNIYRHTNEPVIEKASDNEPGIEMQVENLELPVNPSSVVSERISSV

human 5-HT2B receptor [4] = biological target: T2, human 5-HT2B receptor (Homo sapiens, UniProt P41595); experiment: 5-HT2B agonist effect, IP1 production (HTRF) in transfected CHO cells; assay type: cell-based; settings: IP1 production vs 1 μM 5-HT control
T2 construct: expressed in transfected cells; host or cells: CHO cells
Method: (§1) Evaluation of the activity of CBD and 7-OH-CBD at the human 5-HT2B receptor was undertaken in transfected CHO cells. Such activity as either an agonist or antagonist was determined by measuring their effects IP1 production using the HTRF detection method.
Cells were suspended in a buffer containing 10 mM Hepes/NaOH (pH 7.4), 4.2 mM KCl, 146 mM NaCl, 1 mM CaCl2), 0.5 mM MgCl2, 5.5 mM glucose and 50 mM LiCl, then distributed in microplates at a density of 4.104 cells/well and incubated for 30 min at 37° C. in the presence of buffer (basal control), test compound or reference agonist.
For stimulated control measurement, separate assay wells contain 1 μM 5-HT. Following incubation, the cells are lysed and the fluorescence acceptor (D2-labeled IP1) and fluorescence donor (anti-IP1 antibody labelled with europium cryptate) are added.
After 60 min at room temperature, the fluorescence transfer is measured at A ex=337 nm and A em=620 and 665 nm using a microplate reader (Rubystar, BMG).
(§2) The IP1 concentration is determined by dividing the signal measured at 665 nm by that measured at 620 nm (ratio).
The results are expressed as a percent of the control response to 1 μM 5-HT. The standard reference agonist is 5-HT, which is tested in each experiment at several concentrations to generate a concentration-response curve from which its EC50 value is calculated.

[5] = Plasma concentrations in human clinical trials in epilepsy; assay type: in vivo
human 5-HT2B receptor [6] = biological target: T2, human 5-HT2B receptor; experiment: 5-HT2B antagonist effect, IP1 production (HTRF) in transfected CHO cells; assay type: cell-based; settings: antagonism of 30 nM 5-HT
Method: as §1
Cells were suspended in a buffer containing 10 mM Hepes/NaOH (pH 7.4), 4.2 mM KCl, 146 mM NaCl, 1 mM CaCl2), 0.5 mM MgCl2, 5.5 mM glucose and 50 mM LiCl, then distributed in microplates at a density of 4.104 cells/well and preincubated for 5 min at room temperature in the presence of buffer (basal control), test compound or reference antagonist.
Thereafter, the reference agonist 5-HT is added at a final concentration of 30 nM. […] Following 30 min incubation at 37° C., the cells are lysed and the fluorescence acceptor (D2-labeled IP1) and fluorescence donor (anti-IP1 antibody labelled with europium cryptate) are added.
After 60 min at room temperature, the fluorescence transfer is measured at ex=337 nm and λ em=620 and λ 665 nm using a microplate reader (Rubystar, BMG).
as §2
The results are expressed as a percent inhibition of the control response to 30 nM 5-HT. […]

T2 sequence (P41595 whole entry): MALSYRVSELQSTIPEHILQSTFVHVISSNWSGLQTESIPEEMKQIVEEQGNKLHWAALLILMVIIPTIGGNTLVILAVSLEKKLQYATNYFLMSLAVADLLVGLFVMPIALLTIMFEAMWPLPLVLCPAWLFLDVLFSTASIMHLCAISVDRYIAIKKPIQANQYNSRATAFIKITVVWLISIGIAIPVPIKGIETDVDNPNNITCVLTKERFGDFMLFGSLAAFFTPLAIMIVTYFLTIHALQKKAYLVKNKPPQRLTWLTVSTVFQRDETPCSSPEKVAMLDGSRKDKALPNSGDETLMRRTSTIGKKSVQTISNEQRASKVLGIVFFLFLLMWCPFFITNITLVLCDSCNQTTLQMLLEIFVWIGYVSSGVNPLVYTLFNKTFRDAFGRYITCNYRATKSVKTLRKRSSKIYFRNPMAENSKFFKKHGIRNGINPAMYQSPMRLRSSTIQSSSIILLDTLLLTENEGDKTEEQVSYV

Row | SMILES | effect on seizure frequency [1] | Drug alone dose for the given effect ([2]; Effect 40%) | Dose Reduction Index (DRI) ([2]; Effect 40%) | Drug alone dose for the given effect ([2]; Effect 80%) | Dose Reduction Index (DRI) ([2]; Effect 80%) | Drug alone dose for the given effect ([2]; Effect 90%) | Dose Reduction Index (DRI) ([2]; Effect 90%) | doses with statistically significant (p<0.05) anticonvulsant effect vs vehicle [2] | effect on incidence of MES vs vehicle, drug alone [2] | ED50 [2] | interaction with the 5-HT2C receptor [3] | agonist activity at 5-HT2B receptors (human 5-HT2B receptor [4]) | plasma concentration reached ([5]; human clinical trials in epilepsy, plasma) | molar plasma concentration ([5]; human clinical use of CBD, plasma) | Kb (human 5-HT2B receptor [6]) | 7-OH-CBD concentration relative to that achieved by CBD ([5]; clinical use of CBD)
1 | CCNC(C)Cc1cccc(C(F)(F)F)c1 (stereo not drawn) [FEN, fenfluramine hydrochloride, reference compound] | reduce seizure frequency | 4.19 mg/kg | 3.639 fold | 8.26 mg/kg | 3.306 fold | 11.24 mg/kg | 2.921 fold | 10 mg/kg | no significant effect | 4.9 mg/kg | – | – | – | – | – | –
2 | C=C(C)[C@@H]1CCC(C)=C[C@H]1c1c(O)cc(CCCCC)cc1O [CBD, cannabidiol] | – | 28.46 mg/kg | 1.006 fold | 56.55 mg/kg | 2.704 fold | 77.15 mg/kg | 5.690 fold | 50 to 100 mg/kg | no significant effect | 33.2 mg/kg | does not act upon the 5-HT2C receptors | Neither CBD nor 7-OH-CBD possess agonist activity | up to 330 ng/mL | ~1 µM | 3.7 µM | –
3 | C=C(C)[C@@H]1CCC(CO)=C[C@H]1c1c(O)cc(CCCCC)cc1O [7-OH-CBD, 7-hydroxy cannabidiol] | – | – | – | – | – | – | – | – | – | – | – | Neither CBD nor 7-OH-CBD possess agonist activity | – | – | 0.69 µM | ~50%
